{
  "source": "patent US10722483B2",
  "about": "“Treatment of NAFLD and NASH” (CymaBay Therapeutics, Inc., priority 2014, dated 2020)",
  "key": {"[1]": {"settings": "cited from earlier work"}, "[2]": {"settings": "rodent models of NAFLD/NASH; cited from earlier work"}, "[3]": {"settings": "cited from earlier work", "remark": "listed apart in the source"}, "[4]": {"settings": "80 mg/day or placebo, NASH patients; cited from earlier work"}, "PPARα": {"target": "T1, PPARα (Homo sapiens, UniProt Q07869)", "T1 sequence (Q07869 1-468)": "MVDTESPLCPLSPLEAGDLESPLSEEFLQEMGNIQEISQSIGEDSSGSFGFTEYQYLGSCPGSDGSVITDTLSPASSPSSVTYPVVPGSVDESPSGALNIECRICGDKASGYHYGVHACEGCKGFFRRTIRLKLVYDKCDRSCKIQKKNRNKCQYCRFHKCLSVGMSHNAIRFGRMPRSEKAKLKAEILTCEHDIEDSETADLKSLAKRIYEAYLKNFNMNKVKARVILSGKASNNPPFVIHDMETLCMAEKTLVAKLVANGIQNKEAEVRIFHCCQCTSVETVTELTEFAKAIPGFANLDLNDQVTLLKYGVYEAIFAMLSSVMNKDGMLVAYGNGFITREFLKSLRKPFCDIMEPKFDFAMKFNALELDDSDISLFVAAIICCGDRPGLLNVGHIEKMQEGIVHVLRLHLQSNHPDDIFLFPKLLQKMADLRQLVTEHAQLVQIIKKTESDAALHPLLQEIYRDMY", "test": "Specificity of MBX-8025 compared with PPARα", "format": "biochemical"}, "[5]": {"test": "Example: subjects with NAFLD or NASH treated with MBX-8025 for 6 months", "format": "in vivo, human", "settings": "50 or 100 mg/day for 6 months", "protocol": "Subjects are permitted their usual other medications (e.g. antidiabetic medications such as metformin or […]) but not glitazones, PPAR agonists, OCA, or similar medications. […] At each visit, after a 12-hour fast, blood is drawn and urine collected; and a standard metabolic panel, complete blood count, and standard urinalysis are performed. Blood is analyzed for total cholesterol, HDL-C, LDL-C, VLDL-C, TGs, apoB, and liver transaminases. The subjects also maintain health diaries, which are reviewed at each visit."}, "[6]": {"settings": "normal mice; cited from earlier work"}, "[7]": {"settings": "genetically obese ob/ob mice; cited from earlier work"}, "[8]": {"settings": "healthy subjects, cited from earlier work"}, "[9]": {"settings": "dyslipidemic subjects with abdominal obesity; cited from earlier work"}, "[10]": {"settings": "development discontinued; cited from earlier work"}, "[11]": {"settings": "NAFLD/NASH; cited from earlier work"}, "[12]": {"settings": "both women and men; cited from earlier work"}},
  "note": "Read-outs that look alike come from different tables or passages of the source.",
  "data": [
    {"smiles": "CC(C)c1c(C(=O)Nc2ccccc2)c(-c2ccccc2)c(-c2ccc(F)cc2)n1CC[C@@H](O)C[C@@H](O)CC(=O)O", "note": "[atorvastatin]", "values": [
      {"measurement": "reduction (decrease) of LDL-S/VS", "setting": "[1]; 8 weeks", "value": 25, "unit": "%"}
    ]},
    {"smiles": "CSc1ccc(C(=O)/C=C/c2cc(C)c(OC(C)(C)C(=O)O)c(C)c2)cc1", "note": "[GFT505]", "values": [
      {"measurement": "hepatic steatosis, inflammation, fibrosis and liver dysfunction markers", "setting": "[2]", "value": "decreased"},
      {"measurement": "liver dysfunction markers including ALT, ALP and GGT", "setting": "[3]; clinical studies", "value": "decrease"},
      {"measurement": "lipid-modifying efficacy (reduction in TGs, non-HDL-C, total cholesterol, LDL-C, apoB; increases in HDL-C)", "setting": "[3]; healthy subjects and patients with T2DM, abdominal obesity, dyslipidemia, pre-diabetes, insulin resistance", "value": "confirmed"},
      {"measurement": "interim safety analysis at 6 months", "setting": "[4]", "value": "no safety issue"}
    ]},
    {"smiles": "CCO[C@H](COc1ccc(C(F)(F)F)cc1)CSc1ccc(OCC(=O)O)c(C)c1", "note": "[MBX-8025, (R)-2-(4-((2-ethoxy-3-(4-(trifluoromethyl)phenoxy)propyl)-thio)-2-methylphenoxy)acetic acid]", "values": [
      {"measurement": "specificity for PPARδ compared with PPARα receptor", "setting": "PPARα", "value": "> 600", "unit": "fold"},
      {"measurement": "improvement in disease as manifested by MRI and liver biopsy", "setting": "[5]", "value": "dose-related improvement"},
      {"measurement": "reduction in LDL-C in the tertile with the highest starting LDL-C levels (187-205 mg/dL)", "setting": "[1]; 100 mg/day", "value": 35, "unit": "%"},
      {"measurement": "reduction of LDL-C over the total population treated", "setting": "[1]; 100 mg/day", "value": 22, "unit": "%"},
      {"measurement": "reduction (decrease) of LDL-S/VS", "setting": "[1]; 8 weeks", "value": "40-48%"},
      {"measurement": "reduction of apoB100 compared to placebo", "setting": "[1]; MBX-8025 50 or 100 mg alone and in combination with atorvastatin 20 mg, 8 weeks, P<0.05", "value": "20-38%"},
      {"measurement": "raise of HDL-C", "setting": "[1]; MBX-8025 alone and in combination with atorvastatin, 8 weeks", "value": "1-12%"},
      {"measurement": "insulin sensitivity (HOMA-IR, fasting plasma glucose, and insulin)", "setting": "[1]; in vivo", "value": "increases insulin sensitivity"}
    ]},
    {"smiles": "Cc1cc(SCc2sc(-c3ccc(C(F)(F)F)cc3)nc2C)ccc1OCC(=O)O", "note": "[GW510516]", "values": [
      {"measurement": "diet-induced obesity and insulin resistance", "setting": "[6]", "value": "ameliorated"},
      {"measurement": "diabetes (glucose and insulin levels)", "setting": "[7]", "value": "markedly improved"},
      {"measurement": "reduction in hepatic fat", "setting": "[8]; one of the Phase 1 studies", "value": 20, "unit": "%"},
      {"measurement": "TGs, LDL-C, apoB, and insulin levels", "setting": "[8]; two Phase 1 studies", "value": "reduce"},
      {"measurement": "decrease in fasting TGs", "setting": "[9]", "value": 30, "unit": "%"},
      {"measurement": "decrease in fasting insulin", "setting": "[9]", "value": 11, "unit": "%"},
      {"measurement": "reduction in LDL-C", "setting": "[9]", "value": 23, "unit": "%"},
      {"measurement": "reduction in apoB", "setting": "[9]", "value": 26, "unit": "%"},
      {"measurement": "reduction in fasting non-esterified fatty acids", "setting": "[9]", "value": 40, "unit": "%"},
      {"measurement": "reduction in hepatic fat", "setting": "[9]", "value": 20, "unit": "%"},
      {"measurement": "association with cancers in animal studies", "setting": "[10]", "value": "rapid development of cancers in several organs"}
    ]},
    {"smiles": "CCCCCCCCCCC[C@@H](C[C@@H]1OC(=O)[C@H]1CCCCCC)OC(=O)[C@H](CC(C)C)NC=O", "note": "[orlistat]", "values": [
      {"measurement": "benefit compared to weight loss alone (diet and exercise)", "setting": "[11]", "value": "no significant benefit"}
    ]},
    {"smiles": "CCc1ccc(CCOc2ccc(CC3SC(=O)NC3=O)cc2)nc1", "note": "(centres unmarked) [pioglitazone]", "values": [
      {"measurement": "risk of weight gain, edema, congestive heart failure, and osteoporotic fractures", "setting": "[12]", "value": "significantly increased risk"}
    ]}
  ]
}
